Assay results from PMC7318006, “Anidulafungin and Micafungin Concentrations in Cerebrospinal Fluid and in Cerebral Cortex” (Antimicrobial Agents and Chemotherapy, 2020).
Where two headings read alike, the source gives them in different places. Starred links: 1 amine or outer side, 2 acyl side, 3 side chain; linkers in the order of their positions; H or OH if unused. Positions of bridges follow the written chain, without caps; N, C: chain ends. Non-standard residues stand in square brackets, D forms with d. Residues, ends and D or L forms follow the SMILES beside them. *: point of attachment. hTyr(3S-OH,4S-OH,3'-OSO3H) = N[C@H](C(=O)O)[C@H](O)[C@@H](O)c1ccc(O)c(OS(=O)(=O)O)c1; pTerphenylCO(4''-OnC5H11) = CCCCCOc1ccc(-c2ccc(-c3ccc(C(=O)*)cc3)cc2)cc1; Orn(4R-OH,5R-OH) = O=C([C@H](C[C@@H](O)[C@@H](O)N[*:3])N[*:1])[*:2]; hTyr(3S-OH,4S-OH) = N[C@H](C(=O)O)[C@H](O)[C@@H](O)c1ccc(O)cc1; Pro(3S-OH,4S-Me) = C[C@H]1CN[C@H](C(=O)O)[C@H]1O; X1 = CCCCCOc1ccc(-c2cc(-c3ccc(C(=O)*)cc3)no2)cc1; Gln(3R-OH) = NC(=O)C[C@@H](O)[C@H](N)C(=O)O; Hyp = O=C(O)[C@@H]1C[C@@H](O)CN1

Key:
[1] = Stability in brain tissue at 4°C; format: in vitro ADME, human; conditions: brain tissue at 4°C (storage temperature of the corpses)
Procedure: (§1) In brain specimens, we cannot rule out minor agonal or postmortem changes of anidulafungin and micafungin concentrations, although anidulafungin and micafungin were stable in the brains of deceased patients for at least 96 h. Brain specimens consist of various compartments, e.g., different cells, extracellular matrix, and blood vessels. Anidulafungin and micafungin were not quantified on a cellular level or in different brain areas. Echinocandin extraction from human brain might yield slightly lower recovery than extraction from external standards. In rats, [^3H]caspofungin brain concentrations were ≤0.16 μg eq/g ([17]). In rabbits, micafungin brain concentrations were <0.19 μg/g, and those of anidulafungin were <4.0 μg/g ([18], [19]). In a biopsy sample of a brain abscess, a micafungin concentration of 0.26 μg/g was measured ([20]).

[2] = cited from earlier work
Procedure: as §1, with “brain” for “brain concentrations were ≤0.16 μg eq/g ([17]). In rabbits, micafungin brain concentrations were <0.19 μg/g, and those of anidulafungin were <4.0 μg/g ([18], [19]). In a biopsy sample of a brain abscess, a micafungin”, “...” for “of 0.26 μg/g was measured ([20]).”

[3] = cumulative dose 200 mg; for Cmax (peak concentration) in CSF: steady state not reached
[4] = clinical; conditions: human, in vivo, iv
[5] = test system: Candida strains; conditions: pharmacodynamic target, not achieved in CSF of patients 2 and 5; cited from earlier work
Procedure: In some of the CSF and brain specimens, measured anidulafungin and micafungin concentrations were below the MICs reported for relevant Candida species (i.e., 0.008 to 4.0 μg/ml) ([6]). […] However, the relevance of in vitro MIC values for antifungal activity of echinocandins in CSF and in CNS remains to be clarified. In CSF, protein binding of anidulafungin and micafungin is unk ...

[6] = Concentration in autopsy samples of cerebral cortex of deceased patients, HPLC-UV; format: in vivo, human
Procedure: The cerebral cortex of deceased patients who had received anidulafungin or micafungin within their last 30 days of life was sampled during autopsy, which is routinely performed for quality assurance in Austrian hospitals. Anidulafungin and micafungin were extracted from 0.2 g of tissue by addition of 250 μl of acetonitrile and 250 μl of methanol (Sigma-Aldrich, Vienna, Austria), homogenization with a Precellys homogenizer (Bertin Instruments, Montigny-le-Bretonneux, France) at 4,500 rpm (twice for 25 s, 2-s break), and centrifugation for 5 min at 8°C and 4,665 × g. For calibration, we used porcine brain samples spiked with anidulafungin or micafungin and homogenized and proceeded in the same manner. Both echinocandins were quantified by HPLC-UV at 306 nm ([5]). The lower limit of quantification was 0.05 μg/g for anidulafungin and 0.10 μg/g for micafungin. The extraction recovery from brain was ∼40% and ∼60% for anidulafungin and micafungin, respectively.

[7] = Concentration in arterial plasma of critically ill adults drawn simultaneously with CSF, HPLC-UV; format: in vivo, human; conditions: for AUC(0-t) / half-life / Cmax / Tmax: intravenous; for AUC(0-t): read-out: AUC0–24 in plasma; for half-life: read-out: t1/2 (half-life) in plasma (converted); for Cmax: read-out: Cmax (peak concentration) in plasma; for Tmax: read-out: Tmax (time to Cmax) in plasma
Procedure: CSF was taken during diagnostic lumbar puncture (LP) or via external ventricular drain (EVD) from critically ill adults treated with anidulafungin or micafungin. Simultaneously, we took 2-ml arterial blood samples. CSF and plasma were stored at –80°C.
Anidulafungin and micafungin concentrations were quantified by high-performance liquid chromatography and UV detection (HPLC-UV) as described previously ([5]). Noncompartmental pharmacokinetics was calculated with Kinetica 2000 (InnaPhase Corporation, Champs-sur-Marne, France). The area under the concentration-time curve from 0 to 24 h (AUC0–24) was computed with the log-linear method when the concentration in a trapezoid decreased or with the trapezoidal method when the concentration increased.

[8] = cited from earlier work; remark: listed apart in the source
[9] = patient 2, external ventricular drainage, treatment day 1, noncompartmental
[10] = human, plasma, patient 2, cumulative dose 200 mg, treatment day 1, noncompartmental
[11] = patient 5, external ventricular drainage, treatment day 2, noncompartmental
[12] = human, plasma, patient 5, cumulative dose 200 mg, treatment day 2, noncompartmental

CCCCCOc1ccc(-c2ccc(-c3ccc(C(=O)N[C@H]4C[C@@H](O)[C@@H](O)NC(=O)[C@@H]5[C@@H](O)[C@@H](C)CN5C(=O)[C@H]([C@@H](C)O)NC(=O)[C@H]([C@H](O)[C@@H](O)c5ccc(O)cc5)NC(=O)[C@@H]5C[C@@H](O)CN5C(=O)[C@H]([C@@H](C)O)NC4=O)cc3)cc2)cc1 [anidulafungin] ({pTerphenylCO(4''-OnC5H11)}-[Orn(4R-OH,5R-OH)]T[Hyp][hTyr(3S-OH,4S-OH)]T[Pro(3S-OH,4S-Me)]; lactam 1-C)
Time stable in brain tissue [1]: at least 96 h
Brain concentrations ([2]; rabbits): < 4.0 µg/g
Tmax (time to Cmax) in CSF ([3]; patient 2, external ventricular drainage, treatment day 1): 1 h
AUC0–24 in CSF [3, 9]: 2090 ng·h/mL
t1/2 (half-life) in CSF [3, 9]: 7.90 h
Cmax (peak concentration) in CSF ([3]; patient 2, external ventricular drainage, treatment day 1, sampling before and 1, 4, 8, 12, 18, 24 h after start of infusion): 660 ng/mL
Cmin (trough concentration) in CSF ([3]; patient 2, external ventricular drainage, treatment day 1, steady state not reached): 30 ng/mL
Kp ([4]; 200 mg): 0.07
Kp at 3 h ([4]; 300 mg): 0.01
Kp at 0.5 h ([4]; 2500 mg): < 0.002
Target AUC0–24/MIC ratio suggested [5]: 2,782
tissue level at time at 29 h ([6]; human, cerebral cortex, 1200 mg, patient 10, cumulative dose 1,200 mg, treatment 11 days, 29 h between last administration and death, 21 h between death and sampling, LLOQ 0.05 μg/g, read-out: Concn in cerebral cortex (autopsy)): 1580 ng/g
tissue level at time at 12 h ([6]; human, cerebral cortex, 1500 mg, patient 9, cumulative dose 1,500 mg, treatment 14 days, 12 h between last administration and death, 15 h between death and sampling, LLOQ 0.05 μg/g, read-out: Concn in cerebral cortex (autopsy)): 2340 ng/g
tissue level at time at 313 h ([6]; human, cerebral cortex, 1800 mg, patient 8, cumulative dose 1,800 mg, treatment 17 days, 313 h between last administration and death, 25 h between death and sampling, LLOQ 0.05 μg/g, read-out: Concn in cerebral cortex (autopsy)): 280 ng/g
tissue level at time at 32 h ([6]; human, cerebral cortex, patient 7, cumulative dose 700 mg, treatment 6 days, 32 h between last administration and death, 14 h between death and sampling, LLOQ 0.05 μg/g, read-out: Concn in cerebral cortex (autopsy)): 210 ng/g
AUC(0-t) [7, 10]: 29400 ng·h/mL
half-life [7, 10]: 14.7 h
Cmax ([7]; human, plasma, patient 2, cumulative dose 200 mg, treatment day 1, sampling before and 1, 4, 8, 12, 18, 24 h after start of infusion, steady state not reached): 2720 ng/mL
Tmax ([7]; human, plasma, patient 2, cumulative dose 200 mg, treatment day 1): 1 h
level at 0.5 h ([7]; human, plasma, iv, 2500 mg, patient 3, arterial blood simultaneous with lumbar puncture, cumulative dose 2,500 mg, treatment day 24, 0.5 h from start of infusion, steady state, read-out: Plasma concn): 5070 ng/mL
level at 3 h ([7]; human, plasma, iv, patient 1, arterial blood simultaneous with lumbar puncture, cumulative dose 300 mg, treatment day 3, 3.0 h from start of infusion, steady state not reached, read-out: Plasma concn): 3830 ng/mL
Cmin (trough concentration) in plasma ([7]; patient 2, cumulative dose 200 mg, treatment day 1, steady state not reached): 770 ng/mL

[^3H]caspofungin
Brain concentrations ([2]; rats): ≤ 0.16 μg eq/g

Caspofungin
Detection in CSF ([8]; human, in vivo): undetectable
Detection in CSF ([8]; in 9 of 11 CSF samples from children with hematological malignancies): undetectable

CCCCCOc1ccc(-c2cc(-c3ccc(C(=O)N[C@H]4C[C@@H](O)[C@@H](O)NC(=O)[C@@H]5[C@@H](O)[C@@H](C)CN5C(=O)[C@H]([C@H](O)CC(N)=O)NC(=O)[C@H]([C@H](O)[C@@H](O)c5ccc(O)c(OS(=O)(=O)O)c5)NC(=O)[C@@H]5C[C@@H](O)CN5C(=O)[C@H]([C@@H](C)O)NC4=O)cc3)no2)cc1 [micafungin] (X1-[Orn(4R-OH,5R-OH)]T[Hyp][hTyr(3S-OH,4S-OH,3'-OSO3H)][Gln(3R-OH)][Pro(3S-OH,4S-Me)]; lactam 1-C)
Time stable in brain tissue [1]: at least 96 h
Concentration in biopsy sample of a brain abscess [2]: 0.26 µg/g
Brain concentrations ([2]; rabbits): < 0.19 µg/g
Tmax (time to Cmax) in CSF ([3]; patient 5, external ventricular drainage, treatment day 2): 4 h
Cmin (trough concentration) in CSF ([3]; patient 5, external ventricular drainage, treatment day 2, LLOQ 0.01 μg/ml): <10 ng/mL
AUC0–24 in CSF [3, 11]: 2010 ng·h/mL
t1/2 (half-life) in CSF [3, 11]: 13.80 h
Cmax (peak concentration) in CSF ([3]; patient 5, external ventricular drainage, treatment day 2, sampling before and 1, 4, 8, 12, 18, 24 h after start of infusion): 160 ng/mL
Kp ([4]; 200 mg): 0.02
Kp at 16 h ([4]; 200 mg): 0.08
level at 16 h ([4]; 200 mg): 90 ng/mL
Kp at 2.5 h ([4]; 1300 mg): 0.03
Target AUC0–24/MIC ratio suggested [5]: 5,299
Time after treatment at which the drug was still measurable in cerebral cortex ([6]; autopsy samples of deceased patients): 10 days
tissue level at time at 712 h ([6]; human, cerebral cortex, 1100 mg, patient 11, cumulative dose 1,100 mg, treatment 19 days, 712 h between last administration and death, 58 h between death and sampling, LLOQ 0.10 μg/g, read-out: Concn in cerebral cortex (autopsy)): < 100 ng/g
tissue level at time at 235 h ([6]; human, cerebral cortex, 4000 mg, patient 16, cumulative dose 4,000 mg, treatment 39 days, 235 h between last administration and death, 29 h between death and sampling, LLOQ 0.10 μg/g, read-out: Concn in cerebral cortex (autopsy)): 190 ng/g
tissue level at time at 111 h ([6]; human, cerebral cortex, intravenous, 1800 mg, patient 13, cumulative dose 1,800 mg, treatment 18 days, 111 h between last administration and death, 38 h between death and sampling, LLOQ 0.10 μg/g, read-out: Concn in cerebral cortex (autopsy)): 180 ng/g
tissue level at time at 230 h ([6]; human, cerebral cortex, intravenous, 5300 mg, patient 12, cumulative dose 5,300 mg, treatment 28 days, 230 h between last administration and death, 85 h between death and sampling, LLOQ 0.10 μg/g, read-out: Concn in cerebral cortex (autopsy)): 1520 ng/g
tissue level at time at 99 h ([6]; human, cerebral cortex, patient 14, cumulative dose 500 mg, treatment 4 days, 25 h between last administration and death, 74 h between death and sampling, LLOQ 0.10 μg/g, read-out: Concn in cerebral cortex (autopsy)): 2880 ng/g
tissue level at time at 324 h ([6]; human, cerebral cortex, patient 15, cumulative dose 300 mg, treatment 3 days, 324 h between last administration and death, 80 h between death and sampling, LLOQ 0.10 μg/g, read-out: Concn in cerebral cortex (autopsy)): < 100 ng/g
AUC(0-t) [7, 12]: 113000 ng·h/mL
half-life [7, 12]: 12.9 h
Cmax ([7]; human, plasma, patient 5, cumulative dose 200 mg, treatment day 2, sampling before and 1, 4, 8, 12, 18, 24 h after start of infusion, steady state not reached): 8700 ng/mL
Tmax ([7]; human, plasma, patient 5, cumulative dose 200 mg, treatment day 2): 1 h
level at 2.5 h ([7]; human, plasma, iv, 1300 mg, patient 6, arterial blood simultaneous with lumbar puncture, cumulative dose 1,300 mg, treatment day 13, 2.5 h from start of infusion, steady state, read-out: Plasma concn): 3510 ng/mL
level at 16 h ([7]; human, plasma, iv, patient 4, arterial blood simultaneous with lumbar puncture, cumulative dose 200 mg, treatment day 2, 16.0 h from start of infusion, steady state not reached, read-out: Plasma concn): 1210 ng/mL
Cmin (trough concentration) in plasma ([7]; patient 5, cumulative dose 200 mg, treatment day 2, steady state not reached): 2160 ng/mL
CSF concentration ([8]; cerebral aspergillosis, 2-fold maximum dose, 300 mg/day): < 0.02 µg/mL
